{
  "source": "patent US20240083846A1",
  "about": "“SMAC MIMETICS FOR TREATMENT OF CANCER, PROCESS FOR PREPARATION AND PHARMACEUTICAL COMPOSITION THEREOF” (COUNCIL OF SCIENTIFIC & INDUSTRIAL RESEARCH, priority 2020, published 2024)",
  "key": {"[1]": {"tested_on": "MDAMB231 cells", "assay": "SRB cytotoxicity assay, MDAMB231", "assay_type": "cell-based", "settings": "Homo sapiens, MDA-MB-231, Breast", "method": "(§1) In vitro cytotoxic activities of different compounds were assessed by using standard SRB assay in different cells. The absorbance of the treated and untreated cells was measured on a multi-well scanning spectrophotometer (Epoch Microplate Reader, Biotek, USA) at a wavelength of 510 nm. Percent growth inhibition was calculated by using the formula […].\n(§2) SMAC mimetics promotes tumor cell selective cytotoxic effects. SW 620, HT 29, HCT 116 and VERO cells were treated with series of Smac mimetics at 10 μM dose for 48 hours and cytotoxicity was measured by SRB assay. As C6 had shown robust in-vitro cytotoxic effect against tumor cells but not to VERO cells, we determined IC50 value of C6 against different types of cancer cell lines. ICso values are represented in Table 2."}, "[2]": {"tested_on": "HT29 cells", "assay": "SRB cytotoxicity assay, HT29", "assay_type": "cell-based", "settings": "Homo sapiens, HT-29", "method": "as §1"}, "[3]": {"tested_on": "XIAP and cIAP1 protein expression", "assay": "Immunoblots from tumor tissues (in vivo target engagement)", "design": "species or system mice", "settings": "vs vehicle treated tumors"}, "[4]": {"tested_on": "A-549 cells", "assay": "SRB cytotoxicity assay, A-549", "assay_type": "cell-based", "settings": "Homo sapiens, A549, Lung", "method": "as §1, §2"}, "[5]": {"tested_on": "PC-3 cells", "assay": "SRB cytotoxicity assay, PC-3", "assay_type": "cell-based", "settings": "Homo sapiens, Prostrate", "method": "as §1, §2"}, "[6]": {"tested_on": "HCC1806 cells", "assay": "SRB cytotoxicity assay, HCC1806", "assay_type": "cell-based", "settings": "Homo sapiens, Breast", "method": "as §1, §2"}, "[7]": {"assay": "Organ distribution analysis", "assay_type": "in vivo, mice", "settings": "FIG. 9 right panel"}, "[8]": {"tested_on": "PARP, Caspase-3, cIAP-1", "assay": "Apoptosis antibody array / apoptotic markers", "assay_type": "cell-based", "settings": "treated cells vs control, FIG. 2 right and FIG. 3", "method": "Apoptosis array was performed by using Proteome Profiler Human Apoptosis Array Kit (ARY009) from R&D Systems following the manufacturer's instructions. The detailed assay procedure was followed. The images were captured by the gel documentation system (Bio-Rad chemidoc XRS plus), while ImageJ software (NIH) was used for analysis and quantification. Plotly software was used for heatmap generation (Montreal, Canada)."}, "[9]": {"tested_on": "Annexin-V positive cells", "assay": "Annexin-V apoptosis analysis", "assay_type": "cell-based", "settings": "FIG. 2, left"}, "[10]": {"settings": "xenograft studies, FIG. 7 and FIG. 8", "method": "Mice were randomly assigned to groups by a blinded independent investigator. Throughout the study, the tumor was measured with an electronic digital caliper at a regular interval, and the tumor volume was calculated using standard formula V=Π/6×a2×b, where ‘a’ is the short and ‘b’ is the long tumor axis. At the end of the experiment, mice were sacrificed, and subcutaneous tumors were dissected for further studies. Parts of harvested tumors were minced into small pieces with sterile forceps and scissors and homogenized for lysate preparation."}, "[11]": {"tested_on": "MCF-7 cells", "assay": "SRB cytotoxicity assay, MCF-7", "assay_type": "cell-based", "settings": "Homo sapiens, MCF7, Breast", "method": "as §1, §2"}, "[12]": {"tested_on": "K562 cells", "assay": "SRB cytotoxicity assay, K562", "assay_type": "cell-based", "settings": "Homo sapiens, Leukemia", "method": "as §1, §2"}, "[13]": {"tested_on": "SW-620 xenograft", "assay": "Cisplatin resistant SW-620 xenograft model", "assay_type": "in vivo, nude Crl: CD1-Foxnlnu mice", "settings": "FIG. 7", "from_the_text": "(§3) All the animals were maintained in a pathogen-free facility under a day—night cycle."}, "[14]": {"tested_on": "4T1 cells", "assay": "SRB cytotoxicity assay, 4T1", "assay_type": "cell-based", "settings": "Breast (Mouse)", "method": "as §1, §2"}, "[15]": {"tested_on": "HEP-G2 cells", "assay": "SRB cytotoxicity assay, HEP-G2", "assay_type": "cell-based", "settings": "Homo sapiens, HepG2, Liver", "method": "as §1, §2"}, "[16]": {"tested_on": "CT26 cells", "assay": "SRB cytotoxicity assay, CT26", "assay_type": "cell-based", "settings": "Colon (Mouse)", "method": "as §1, §2"}, "[17]": {"tested_on": "cancer cells", "assay": "Colony formation assay", "assay_type": "cell-based", "settings": "FIG. 5", "method": "The clonogenic colony formation assay was done on single-cell suspension. Briefly, cells were plated in complete McCoy's medium into 12-well plates and 24 hours later, were treated with different agents at different doses either alone or in combination. The cells were cultured for two weeks with renewing the media every 3rd day. The plates were washed with PBS and fixed with ice-cold methanol followed by staining with 0.5% crystal violet in methanol for 30 min. Excess stain was removed by washing with water thoroughly and plates were allowed to dry. Representative images were captured in the gel documentation system (Bio-Rad chemidoc XRS plus) while ImageJ software (NIH) was used for analysis and quantification to monitor single cell colony formation efficiency under the different treatment combinations."}, "[18]": {"tested_on": "TRAIL mediated tumor cell cytotoxic response", "assay": "Combination cytotoxicity with DR5 ligand TRAIL", "assay_type": "cell-based", "settings": "in vitro, FIG. 4"}, "[19]": {"tested_on": "786-O cells", "assay": "SRB cytotoxicity assay, 786-O", "assay_type": "cell-based", "settings": "Homo sapiens, 786-0, Kidney", "method": "as §1, §2"}, "[20]": {"tested_on": "cancer cell lines", "assay": "Cytotoxic potential against cancer cell lines (overall statement)", "assay_type": "cell-based", "settings": "all cancer cells tested", "method": "as §1, §2"}, "[21]": {"tested_on": "HCT 116 cells", "assay": "SRB cytotoxicity assay, HCT 116", "assay_type": "cell-based", "settings": "Homo sapiens, HCT-116", "method": "as §1"}, "[22]": {"assay": "Stability studies of C6 (SIF, SGF, plasma, microsomes)", "assay_type": "in vitro ADME"}, "[23]": {"tested_on": "A172 cells", "assay": "SRB cytotoxicity assay, A172", "assay_type": "cell-based", "settings": "Homo sapiens, A 172, Brain", "method": "as §1, §2"}, "[24]": {"tested_on": "HCT-116 xenograft", "assay": "HCT-116 xenograft model", "assay_type": "in vivo, nude Crl: CD1-Foxnlnu mice", "settings": "vs control", "from_the_text": "as §3"}, "[25]": {"tested_on": "U937 cells", "assay": "SRB cytotoxicity assay, U937", "assay_type": "cell-based", "settings": "Homo sapiens, U-937, Lymphoma", "method": "as §1, §2"}},
  "note": "Entries after “also recorded” stand apart in the source; their conditions may differ.",
  "data": [
    {"smiles": "CC[C@H](C)[C@H](NC(=O)[C@@H]1CC[C@H](c2ccc(C)o2)N1C(=O)[C@@H](NC(=O)[C@H](C)NC)C(C)C)C(=O)NC(c1ccccc1)c1ccccc1", "note": "[Compound 6, (2S,5R)-N-((2S,3S)-1-(benzhydrylamino)-3-methyl-1-oxopentan-2-yl)-1-((S)-3-methyl-2-((S)-2-(methylamino)propanamido)butanoyl)-5-(5-methylfuran-2-yl)pyrrolidine-2-carboxamide]", "values": [
      {"measurement": "IC50", "setting": "[1]", "value": 4.15, "unit": "µM"},
      {"measurement": "inhibition at 10 µM", "setting": "[2]; 10 μM, 48 hours, SRB assay, read-out: In vitro cytotoxicity at 10 μM dose, HT29 (percent growth inhibition)", "value": "65 ± 3.6", "unit": "%"},
      {"measurement": "IC50", "setting": "[2]; Colon, HT29", "value": 6.66, "unit": "µM"},
      {"measurement": "XIAP and cIAP1 protein expression in tumors", "setting": "[3]", "value": "reduced XIAP and cIAP1 protein expression"},
      {"measurement": "IC50", "setting": "[4]", "value": "> 10", "unit": "µM"},
      {"measurement": "IC50", "setting": "[5]", "value": 6.02, "unit": "µM"},
      {"measurement": "IC50", "setting": "[6]", "value": 5.79, "unit": "µM"},
      {"measurement": "Presence in tumor tissues", "setting": "[7]", "value": "presence of C6 in tumor tissues in significant quantity"},
      {"measurement": "Hallmark apoptotic features (PARP, Caspase-3, cIAP-1)", "setting": "[8]", "value": "cleavage of PARP and Caspase-3 and degradation of cIAP-1"},
      {"measurement": "Apoptosis (Annexin-V positive cells)", "setting": "[9]", "value": "promotes smac driven apoptotic features"},
      {"measurement": "Body weight / tolerability during course of treatment", "setting": "[10]", "value": "no weight loss was observed"},
      {"measurement": "IC50", "setting": "[11]", "value": 5.02, "unit": "µM"},
      {"measurement": "IC50", "setting": "[12]", "value": 9.1, "unit": "µM"},
      {"measurement": "In vivo anti tumor efficacy", "setting": "[13]", "value": "potent anti tumor efficacy"},
      {"measurement": "IC50", "setting": "[14]", "value": 4.17, "unit": "µM"},
      {"measurement": "IC50", "setting": "[15]", "value": 7.3, "unit": "µM"},
      {"measurement": "IC50", "setting": "[16]", "value": "> 10", "unit": "µM"},
      {"measurement": "Colony formation in XIAP overexpressed and DR5 knock down cells", "setting": "[17]; XIAP overexpressed and DR5 knock down cells", "value": "significant resistant of C6 mediated apoptotic cell death"},
      {"measurement": "Colony formation: effect of Pan caspase inhibitor Z-VAD-FMK on C6 cytotoxic phenotype", "setting": "[17]; with Z-VAD-FMK", "value": "markedly rescues cytotoxic phenotype of C6"},
      {"measurement": "Sensitization of TRAIL mediated tumor cell cytotoxic response", "setting": "[18]", "value": "robustly sensitizes"},
      {"measurement": "IC50", "setting": "[19]", "value": 7.2, "unit": "µM"},
      {"measurement": "Cytotoxic activity against cancer cells (in words)", "setting": "[20]", "value": "potent cytotoxic activity"},
      {"measurement": "inhibition at 10 µM", "setting": "[21]; 10 μM, 48 hours, SRB assay, read-out: In vitro cytotoxicity at 10 μM dose, HCT 116 (percent growth inhibition)", "value": "61.3 ± 2.9", "unit": "%"},
      {"measurement": "IC50", "setting": "[21]; Colon, HCT116", "value": 8.93, "unit": "µM"},
      {"measurement": "Stability in HLM", "setting": "[22]; HLM", "value": "quite stable"},
      {"measurement": "Stability in MLM", "setting": "[22]; MLM", "value": "quite stable"},
      {"measurement": "Stability in SGF", "setting": "[22]; SGF, listed as C6", "value": "highly stable; also recorded: quite stable"},
      {"measurement": "Stability in SIF", "setting": "[22]; SIF, listed as C6", "value": "highly stable; also recorded: quite stable"},
      {"measurement": "Stability in microsome", "setting": "[22]; microsome", "value": "highly stable"},
      {"measurement": "Stability in plasma", "setting": "[22]; plasma", "value": "quite stable"},
      {"measurement": "IC50", "setting": "[23]", "value": 6.88, "unit": "µM"},
      {"measurement": "Xenograft tumor volume", "setting": "[24]; oral administration", "value": "markedly reduced"},
      {"measurement": "Xenograft tumor weight", "setting": "[24]; oral administration", "value": "markedly reduced"},
      {"measurement": "Xenograft tumor volume", "setting": "[24]; subcutaneous administration", "value": "markedly reduced"},
      {"measurement": "Xenograft tumor weight", "setting": "[24]; subcutaneous administration", "value": "markedly reduced"},
      {"measurement": "IC50", "setting": "[25]", "value": 8.98, "unit": "µM"}
    ]}
  ]
}
